Columns and labels:
Experiment in all cases: drug sensitivity score (DSS) from 5-point dose-response viability curve (DSS (area-under-curve based score)); higher = more sensitive (stronger growth inhibition or killing); extreme values may be limits of the assay
Conditions in all cases: exposure time: 72 h; concentration range: 5 concentrations over 10,000-fold range
CAOV3 = test system: CAOV3
Outline: (§1)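 Viability of ovarian cancer and normal ovarian cell lines was read by CellTiter-Glo luminescence after 3 days at 37°C and 5% CO2 in 384-well plates holding 1,500 cells per well. Drugs had been dispensed in DMSO or water with an Echo 550 at five concentrations over a 10,000-fold range. Using Breeze software, a drug sensitivity score was assigned per cell line and drug, higher scores meaning more sensitive, and zero means no response.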

COV318 = test system: COV318
Outline: as §1

COV362 = test system: COV362
Outline: as §1

HOSE1C = test system: HOSE1C
Outline: as §1

HOSE2C = test system: HOSE2C
Outline: as §1

JHOS2 = test system: JHOS2
Outline: as §1

Kuramochi = test system: Kuramochi
Outline: as §1

OV90 = test system: OV90
Outline: as §1

OVCAR4 = test system: OVCAR4
Outline: as §1

OVCAR5 = test system: OVCAR5
Outline: as §1

OVCAR8 = test system: OVCAR8
Outline: as §1

Ovsaho = test system: Ovsaho
Outline: as §1

SMILES | drug sensitivity score (CAOV3) | drug sensitivity score (COV318) | drug sensitivity score (COV362) | drug sensitivity score (HOSE1C) | drug sensitivity score (HOSE2C) | drug sensitivity score (JHOS2) | drug sensitivity score (Kuramochi) | drug sensitivity score (OV90) | drug sensitivity score (OVCAR4) | drug sensitivity score (OVCAR5) | drug sensitivity score (OVCAR8) | drug sensitivity score (Ovsaho)
COC[C@H](NC(=O)c1cnc(C)s1)C(=O)N[C@@H](COC)C(=O)N[C@@H](Cc1ccccc1)C(=O)[C@@]1(C)CO1 [Oprozomib] | 21.7 | 24.5 | 15.1 | 18.8 | 17.1 | 23.9 | 9.6 | 21.4 | 15.2 | 15.4 | 12.6 | 16.1
CNC(=O)c1ccc2cc([C@@]3(O)CCn4cncc43)ccc2c1 [Orteronel] | 0 | 0 | 0 | 0 | 0 | 0 | 0 | 0 | 0 | 0 | 0 | 0
C=CC(=O)Nc1cc(Nc2nccc(-c3cn(C)c4ccccc34)n2)c(OC)cc1N(C)CCN(C)C [Osimertinib] | 5.4 | 1.3 | 2.2 | 4.7 | 0.9 | 1.6 | 3.9 | 1.4 | 1.7 | 5.3 | 3.7 | 5.5
O=C(O)C(=O)O.[NH-][C@@H]1CCCC[C@H]1[NH-].[Pt+2] [Oxaliplatin] | 11.8 | 5 | 0.2 | 10.7 | 6 | 7.8 | 6.8 | 6.9 | 8.5 | 11.4 | 6.8 | 9
C=CCc1cccc(/C=N/NC(=O)CN2CCN(Cc3ccccc3)CC2)c1O [PAC-1] | 3.2 | 0.2 | 0.4 | 3.1 | 2.7 | 0.7 | 2.1 | 2.6 | 3 | 1.7 | 4 | 4
O=C(Nc1cccnc1)N1CCC(Cc2cccc(Oc3ccc(C(F)(F)F)cn3)c2)CC1 [PF-3845] | 1.6 | 0 | 0 | 0 | 0 | 0 | 0 | 2 | 0.3 | 1 | 6.5 | 0
COc1ccccc1S(=O)(=O)Nc1ccc2c(c1)CN(C)C(=O)N2 [PFI-1] | 7.2 | 3.1 | 3 | 3.1 | 4.3 | 2.6 | 8.7 | 5.5 | 4.4 | 5.7 | 4.8 | 8.2
CN1CCN(c2cc(C(=O)Nc3ccc4c(c3)-c3c(c(C(N)=O)nn3-c3ccc(F)cc3)CC4)c(Cl)cn2)CC1 [PHA 408] | 6 | 0.7 | 0.6 | 6.5 | 4.8 | 6.1 | 1.8 | 0.1 | 4.3 | 0.5 | 2.4 | 6.2
O=C(Nc1cc(Cl)cc2c1[nH]c1cnccc12)c1cccnc1 [PS-1145] | 0 | 0 | 0 | 0 | 0 | 0 | 0.6 | 1 | 0.3 | 1.6 | 0 | 0
COc1cc(Br)c(Nc2nc(-c3c(C)nc4ncccn34)cs2)c(Br)c1 [PTC-209] | 4.1 | 2.1 | 0.6 | 8.1 | 9.6 | 6.2 | 2.7 | 9.8 | 3.1 | 3.5 | 4.5 | 1.3
CC(=O)O[C@H]1C(=O)[C@@]2(C)[C@H]([C@H](OC(=O)c3ccccc3)[C@]3(O)C[C@H](OC(=O)[C@H](O)[C@@H](NC(=O)c4ccccc4)c4ccccc4)C(C)=C1C3(C)C)[C@]1(OC(C)=O)CO[C@@H]1C[C@@H]2O [Paclitaxel] | 25.9 | 5.7 | 8.9 | 25.1 | 25 | 14.4 | 13.8 | 14.9 | 7.8 | 21.4 | 27.6 | 11.8
C1=N/C2=N/c3ccc(OCCN4CCCC4)c(c3)COC/C=C/COCc3cccc(c3)C(=C1)N2 [Pacritinib] | 7.6 | 5.3 | 6.2 | 8.2 | 8.2 | 7.5 | 6.5 | 10.5 | 6.8 | 9.4 | 7.8 | 8
CC(=O)c1c(C)c2cnc(Nc3ccc(N4CCNCC4)cn3)nc2n(C2CCCC2)c1=O [Palbociclib] | 0.1 | 3.2 | 1 | 4.5 | 2.9 | 6.3 | 1.4 | 0.8 | 0.1 | 3.6 | 0.5 | 3
COc1ccc(COc2cc3oc(=O)c4cc(C(C)O)ccc4c3cc2OC)cc1 (stereo not given) [Palomid-529] | 0 | 1.2 | 0 | 0 | 0 | 0 | 0.1 | 0.8 | 0.6 | 0 | 0 | 0.1
Cc1[nH]c2ccccc2c1CCNCc1ccc(/C=C/C(=O)NO)cc1 [Panobinostat] | 14.5 | 10.6 | 5.8 | 24.1 | 21.1 | 13.1 | 15.3 | 18.2 | 13.5 | 23.3 | 21.4 | 10.8

Reference: the supplement of paper PMC11616607
